According to patent US20230251254A1, “METHOD FOR EVALUATING INTERACTION BETWEEN IMMOBILIZED SUBSTANCE IMMOBILIZED DIRECTLY OR INDIRECTLY ON SUBSTRATE AND PROXIMITY-DEPENDENT MODIFYING ENZYMELABELED SUBSTANCE TO BE ANALYZED” (CELLFREE SCIENCES CO.,LTD., priority 2020, published 2023):

Key:
CRBN and IKZF1 [1] = target: T1, CRBN and IKZF1 (Homo sapiens, UniProt Q96SW2); details: compound added to reaction buffer; AirID-fused CRBN
Experimental: (§1) In this Example, an interaction between proteins known to bind to each other, CRBN (SEQ ID NO: 7) and IKZF1 (SEQ ID NO: 6) or SALL4 (SEQ ID NO: 9), was analyzed. […] In view of this, the compound (thalidomide derivative) was added to a buffer to be used for a reaction to analyze how CRBN interacted with IKZF1 or SALL4 in a compound-dependent (binding recruiter) manner. The flow of this Example is illustrated in FIG. 3.
(§2) As a substance to be analyzed (protein), template DNA in which CRBN was fused to AirID and template DNA in which a mutant CRBN (SEQ ID NO: 8) having a mutation introduced into its binding site for the thalidomide derivative was fused to AirID were synthesized. As an immobilized substance (protein), template DNA was synthesized by fusing IKZF1, SALL4, or Venus (control) for comparison to a FLAG™ tag protein and a GST protein.
(§3) The synthesized template DNAs were used to synthesize AirID-fused substances to be analyzed and FLAG™-GST-fused immobilized substances through use of a wheat cell-free expression system.
(§4) The FLAG™-GST-fused immobilized substance (IKZF1, SALL4, or Venus) was bound to glutathione magnetic beads, followed by purification. The magnetic beads after the purification were dispensed and arranged on the wells of the plate, and immobilized by the magnetic force of the magnet plate.
(§5) The AirID-fused substance to be analyzed (CRBN or mutant CRBN) diluted with a reaction buffer containing biotin and ATP was allowed to react with the FLAG™-GST-fused immobilized substance (IKZF1, SALL4, or Venus) on the magnetic beads to perform biotin labeling of the FLAG™-GST-fused immobilized substance.
(§6) In order to remove the AirID-fused substance to be analyzed that was free in the reaction buffer or adsorbed onto the magnetic beads, the reaction buffer was removed and then washing was performed a plurality of times with a washing buffer.

CRBN and SALL4 [2] = target: T2, CRBN and SALL4 (Homo sapiens, UniProt Q96SW2); details: compound added to reaction buffer; AirID-fused CRBN
T2 sequence (as listed by the source): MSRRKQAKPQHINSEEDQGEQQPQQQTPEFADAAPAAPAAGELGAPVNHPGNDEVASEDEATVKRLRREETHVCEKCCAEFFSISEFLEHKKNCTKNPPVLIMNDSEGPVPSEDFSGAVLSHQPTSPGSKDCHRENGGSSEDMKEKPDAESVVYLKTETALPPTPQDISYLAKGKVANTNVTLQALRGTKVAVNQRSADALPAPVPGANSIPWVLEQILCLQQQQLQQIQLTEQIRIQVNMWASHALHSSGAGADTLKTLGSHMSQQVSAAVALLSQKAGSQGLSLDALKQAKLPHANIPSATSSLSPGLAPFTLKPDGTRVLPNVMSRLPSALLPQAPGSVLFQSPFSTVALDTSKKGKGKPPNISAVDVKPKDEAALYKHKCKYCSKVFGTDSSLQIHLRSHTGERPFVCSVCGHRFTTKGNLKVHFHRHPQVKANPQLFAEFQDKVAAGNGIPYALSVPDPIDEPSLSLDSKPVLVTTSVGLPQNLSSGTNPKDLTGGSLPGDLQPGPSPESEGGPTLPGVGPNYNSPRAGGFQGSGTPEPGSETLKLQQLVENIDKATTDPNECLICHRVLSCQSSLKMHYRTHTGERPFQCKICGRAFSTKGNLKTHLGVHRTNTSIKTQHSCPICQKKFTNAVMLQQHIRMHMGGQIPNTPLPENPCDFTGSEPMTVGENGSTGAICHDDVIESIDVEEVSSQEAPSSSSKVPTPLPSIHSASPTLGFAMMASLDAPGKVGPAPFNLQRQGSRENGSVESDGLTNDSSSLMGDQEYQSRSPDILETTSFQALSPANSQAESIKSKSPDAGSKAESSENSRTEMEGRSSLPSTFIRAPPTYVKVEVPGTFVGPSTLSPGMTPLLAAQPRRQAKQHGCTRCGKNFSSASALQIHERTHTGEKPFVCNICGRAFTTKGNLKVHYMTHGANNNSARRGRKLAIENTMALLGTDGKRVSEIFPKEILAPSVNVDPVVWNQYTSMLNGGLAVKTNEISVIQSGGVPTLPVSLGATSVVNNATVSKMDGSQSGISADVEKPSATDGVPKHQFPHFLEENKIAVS
T2 sequence (Q96SW2 whole entry, the tested form may be a part): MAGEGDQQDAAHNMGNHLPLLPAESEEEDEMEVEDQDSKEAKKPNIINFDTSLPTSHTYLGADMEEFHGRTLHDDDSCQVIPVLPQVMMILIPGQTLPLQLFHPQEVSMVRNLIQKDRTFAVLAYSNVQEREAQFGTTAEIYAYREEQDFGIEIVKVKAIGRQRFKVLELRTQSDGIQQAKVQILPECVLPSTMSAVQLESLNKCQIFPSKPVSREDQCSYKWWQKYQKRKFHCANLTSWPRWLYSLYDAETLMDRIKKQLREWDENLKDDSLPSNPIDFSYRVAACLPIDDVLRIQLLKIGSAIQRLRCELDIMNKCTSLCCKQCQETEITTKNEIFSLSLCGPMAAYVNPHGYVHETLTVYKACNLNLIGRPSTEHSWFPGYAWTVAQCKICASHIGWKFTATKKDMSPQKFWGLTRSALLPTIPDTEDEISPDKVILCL
Experimental: as §1, §2, §3, §4, §5, §6

CRBN and SALL4 [3] = target: CRBN and SALL4 (Homo sapiens, UniProt Q96SW2, W386A/Y384A); details: mutant CRBN having a mutation in its binding site for the compound
Chain of CRBN and SALL4 (Homo sapiens, UniProt Q96SW2, W386A/Y384A) (Q96SW2 whole entry Y384A/W386A): as the sequence (Q96SW2 whole entry, the tested form may be a part) above, with Y384A, W386A counted along it
Experimental: as §1, §2, §3, §4, §5, §6

CRBN and IKZF1 [4] = target: CRBN and IKZF1 (Homo sapiens, UniProt Q96SW2, W386A/Y384A); details: mutant CRBN having a mutation in its binding site for the compound
Chain of CRBN and IKZF1 (Homo sapiens, UniProt Q96SW2, W386A/Y384A) (Q96SW2 whole entry Y384A/W386A): as the sequence (Q96SW2 whole entry, the tested form may be a part) above, with Y384A, W386A counted along it
Experimental: as §1, §2, §3, §4, §5, §6

CRBN and IKZF1 [5] = target: T1, CRBN and IKZF1; details: stated as known; cited from earlier work
CRBN and SALL4 [6] = target: T2, CRBN and SALL4; details: stated as known; cited from earlier work

T1 sequence (Q96SW2 whole entry, the tested form may be a part): as the sequence (Q96SW2 whole entry, the tested form may be a part) above
T1 sequence (as listed by the source): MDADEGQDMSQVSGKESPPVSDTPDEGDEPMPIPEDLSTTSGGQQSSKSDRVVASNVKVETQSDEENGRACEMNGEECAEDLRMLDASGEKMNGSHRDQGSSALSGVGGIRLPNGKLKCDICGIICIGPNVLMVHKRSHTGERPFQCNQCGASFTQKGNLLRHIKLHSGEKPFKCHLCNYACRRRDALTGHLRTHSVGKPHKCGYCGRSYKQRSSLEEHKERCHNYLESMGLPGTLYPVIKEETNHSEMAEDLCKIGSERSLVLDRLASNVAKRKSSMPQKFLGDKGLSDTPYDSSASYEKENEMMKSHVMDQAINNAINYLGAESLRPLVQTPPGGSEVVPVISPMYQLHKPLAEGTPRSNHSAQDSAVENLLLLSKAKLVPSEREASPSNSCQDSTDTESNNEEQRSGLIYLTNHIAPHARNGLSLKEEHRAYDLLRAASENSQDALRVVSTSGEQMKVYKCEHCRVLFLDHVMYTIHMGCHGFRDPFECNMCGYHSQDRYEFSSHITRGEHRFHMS

Compound: Nc1cccc2c1C(=O)N(C1CCC(=O)NC1=O)C2=O (stereo not drawn) [Pomalidomide]
- luminescence intensity of CRBN and IKZF1 (CRBN and IKZF1 [1]): particularly increased
- luminescence intensity of CRBN and SALL4 (CRBN and SALL4 [2]): particularly increased
- luminescence intensity of mutant CRBN and SALL4 (CRBN and SALL4 [3]): hardly any increase
- luminescence intensity of mutant CRBN and IKZF1 (CRBN and IKZF1 [4]): hardly any increase
- effect on binding of CRBN and IKZF1 (CRBN and IKZF1 [5]): enhance their binding
- effect on binding of CRBN and SALL4 (CRBN and SALL4 [6]): enhance their binding
